Reference: ChEMBL document CHEMBL5465560, “Selectivity Literature for EUbOPEN Chemogenomic Library” (2024)

Key:
[1] = target: Delta-type opioid receptor (Homo sapiens, UniProt P41143); assay: Selectivity interaction (Panel of non-epigenetic targets (kinases, GPCRs, ion channels, and transporters, Eurofins) ) EUB0000271b OPRD1; conditions: at 1 µM
[2] = target: Serine/threonine-protein kinase 38 (Homo sapiens) (UniProt Q15208); assay: Selectivity interaction (Ambit KINOMEscan and KiNATiv profiling in Jurkat cells) EUB0000090b STK38; type: cell-based; conditions: at 1 µM
Serine/threonine-protein kinase 38 (Homo sapiens), sequence (Q15208 2-465 limits assumed): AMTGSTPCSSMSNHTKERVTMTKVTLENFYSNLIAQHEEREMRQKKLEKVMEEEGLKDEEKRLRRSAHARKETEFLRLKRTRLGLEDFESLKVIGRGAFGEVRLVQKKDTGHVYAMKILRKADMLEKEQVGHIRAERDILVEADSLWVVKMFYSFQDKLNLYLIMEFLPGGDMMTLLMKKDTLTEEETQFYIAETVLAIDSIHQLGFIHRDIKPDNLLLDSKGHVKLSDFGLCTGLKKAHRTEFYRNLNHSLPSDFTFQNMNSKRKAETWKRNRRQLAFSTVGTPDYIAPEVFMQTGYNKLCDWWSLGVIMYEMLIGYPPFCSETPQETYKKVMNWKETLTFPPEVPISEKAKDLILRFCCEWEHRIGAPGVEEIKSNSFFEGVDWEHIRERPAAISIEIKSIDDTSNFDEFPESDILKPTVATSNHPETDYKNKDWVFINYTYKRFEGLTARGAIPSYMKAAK

[3] = target: Proto-oncogene tyrosine-protein kinase ROS (Homo sapiens) (UniProt P08922); assay: Selectivity interaction (KinomeScan (DiscoverX)) EUB0000618a ROS1; conditions: at 10 µM
Proto-oncogene tyrosine-protein kinase ROS (Homo sapiens), sequence (P08922 whole entry): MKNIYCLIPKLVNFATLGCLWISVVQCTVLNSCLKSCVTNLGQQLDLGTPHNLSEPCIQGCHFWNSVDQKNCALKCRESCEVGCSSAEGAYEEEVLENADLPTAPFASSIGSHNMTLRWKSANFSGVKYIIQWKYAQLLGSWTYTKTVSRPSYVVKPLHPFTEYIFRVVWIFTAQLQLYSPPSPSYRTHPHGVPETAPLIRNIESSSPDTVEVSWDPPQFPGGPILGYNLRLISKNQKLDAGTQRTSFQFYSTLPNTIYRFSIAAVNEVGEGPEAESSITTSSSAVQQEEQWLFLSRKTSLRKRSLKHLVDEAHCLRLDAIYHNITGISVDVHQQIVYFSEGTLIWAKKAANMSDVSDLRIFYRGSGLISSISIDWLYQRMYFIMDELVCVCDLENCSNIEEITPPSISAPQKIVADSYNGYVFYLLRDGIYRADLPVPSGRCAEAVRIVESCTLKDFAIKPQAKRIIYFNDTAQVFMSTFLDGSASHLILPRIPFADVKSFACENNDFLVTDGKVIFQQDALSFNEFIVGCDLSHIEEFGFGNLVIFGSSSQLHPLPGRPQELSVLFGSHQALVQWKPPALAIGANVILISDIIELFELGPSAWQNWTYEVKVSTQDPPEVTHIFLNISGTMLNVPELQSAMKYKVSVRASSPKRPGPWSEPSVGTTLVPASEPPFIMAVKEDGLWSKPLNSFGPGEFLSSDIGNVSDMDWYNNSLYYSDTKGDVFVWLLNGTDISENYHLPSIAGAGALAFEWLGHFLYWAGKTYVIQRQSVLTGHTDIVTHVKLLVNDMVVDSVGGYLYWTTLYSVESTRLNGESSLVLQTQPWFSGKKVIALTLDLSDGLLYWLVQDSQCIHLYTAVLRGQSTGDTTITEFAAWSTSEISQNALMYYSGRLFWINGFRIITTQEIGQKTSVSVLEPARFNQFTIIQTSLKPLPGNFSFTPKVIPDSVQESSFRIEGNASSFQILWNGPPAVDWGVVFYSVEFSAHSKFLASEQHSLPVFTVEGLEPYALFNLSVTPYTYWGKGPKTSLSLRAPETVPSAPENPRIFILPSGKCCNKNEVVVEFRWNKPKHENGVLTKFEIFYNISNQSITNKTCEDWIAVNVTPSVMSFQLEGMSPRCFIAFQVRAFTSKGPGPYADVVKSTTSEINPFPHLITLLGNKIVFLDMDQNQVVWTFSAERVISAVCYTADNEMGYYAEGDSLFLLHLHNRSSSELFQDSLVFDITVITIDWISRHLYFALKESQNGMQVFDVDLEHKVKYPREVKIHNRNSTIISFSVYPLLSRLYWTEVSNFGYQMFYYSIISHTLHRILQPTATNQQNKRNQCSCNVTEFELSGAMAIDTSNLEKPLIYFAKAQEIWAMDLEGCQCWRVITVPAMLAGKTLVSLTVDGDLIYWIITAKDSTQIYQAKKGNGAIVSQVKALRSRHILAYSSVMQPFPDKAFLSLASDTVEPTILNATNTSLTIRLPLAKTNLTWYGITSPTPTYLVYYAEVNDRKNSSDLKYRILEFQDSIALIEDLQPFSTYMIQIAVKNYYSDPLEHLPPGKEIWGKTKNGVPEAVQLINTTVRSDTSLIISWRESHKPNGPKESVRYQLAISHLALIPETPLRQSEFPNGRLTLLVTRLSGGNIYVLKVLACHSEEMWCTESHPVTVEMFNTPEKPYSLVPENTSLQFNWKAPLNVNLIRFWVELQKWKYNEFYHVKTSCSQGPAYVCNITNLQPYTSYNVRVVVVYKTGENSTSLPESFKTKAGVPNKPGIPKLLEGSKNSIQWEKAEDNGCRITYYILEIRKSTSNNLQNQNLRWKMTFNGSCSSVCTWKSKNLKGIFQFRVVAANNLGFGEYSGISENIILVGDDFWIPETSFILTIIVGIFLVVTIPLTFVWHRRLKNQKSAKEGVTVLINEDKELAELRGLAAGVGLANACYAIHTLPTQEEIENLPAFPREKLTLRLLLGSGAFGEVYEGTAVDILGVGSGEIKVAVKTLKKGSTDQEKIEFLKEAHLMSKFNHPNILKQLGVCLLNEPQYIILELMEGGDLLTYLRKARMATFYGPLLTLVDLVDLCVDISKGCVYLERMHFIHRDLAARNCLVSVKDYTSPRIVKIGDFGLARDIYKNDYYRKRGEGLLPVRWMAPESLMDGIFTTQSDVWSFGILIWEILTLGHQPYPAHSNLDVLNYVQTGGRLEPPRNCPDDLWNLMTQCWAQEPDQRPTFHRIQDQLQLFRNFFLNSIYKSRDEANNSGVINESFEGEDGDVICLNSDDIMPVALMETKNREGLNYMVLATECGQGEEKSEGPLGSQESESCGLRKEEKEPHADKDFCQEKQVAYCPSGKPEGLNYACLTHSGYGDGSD

[4] = target: MAP kinase-interacting serine/threonine-protein kinase 2 (Homo sapiens, UniProt Q9HBH9); assay: Selectivity interaction (KinomeScan (DiscoverX)) EUB0000607a MKNK2; conditions: at 10 µM
MAP kinase-interacting serine/threonine-protein kinase 2, sequence (Q9HBH9 whole entry, looked up, canonical isoform): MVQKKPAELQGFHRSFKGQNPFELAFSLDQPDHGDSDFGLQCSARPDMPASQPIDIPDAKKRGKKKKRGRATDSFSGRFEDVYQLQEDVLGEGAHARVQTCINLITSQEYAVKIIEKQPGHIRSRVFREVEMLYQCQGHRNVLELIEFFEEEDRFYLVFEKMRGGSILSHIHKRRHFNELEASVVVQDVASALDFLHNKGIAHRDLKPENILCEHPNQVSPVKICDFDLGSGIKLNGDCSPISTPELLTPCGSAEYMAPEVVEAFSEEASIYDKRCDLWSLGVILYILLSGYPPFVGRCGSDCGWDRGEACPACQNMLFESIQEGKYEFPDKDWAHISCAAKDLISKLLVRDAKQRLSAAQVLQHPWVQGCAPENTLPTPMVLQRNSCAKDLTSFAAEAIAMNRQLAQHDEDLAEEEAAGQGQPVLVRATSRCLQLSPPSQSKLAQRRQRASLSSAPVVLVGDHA

[5] = target: Casein kinase I isoform gamma-1 (Homo sapiens) (UniProt Q9HCP0); assay: Selectivity interaction (KinomeScan (DiscoverX)) EUB0001619a CSNK1G1; conditions: at 1 µM
Casein kinase I isoform gamma-1 (Homo sapiens), sequence (Q9HCP0 whole entry, looked up, canonical isoform): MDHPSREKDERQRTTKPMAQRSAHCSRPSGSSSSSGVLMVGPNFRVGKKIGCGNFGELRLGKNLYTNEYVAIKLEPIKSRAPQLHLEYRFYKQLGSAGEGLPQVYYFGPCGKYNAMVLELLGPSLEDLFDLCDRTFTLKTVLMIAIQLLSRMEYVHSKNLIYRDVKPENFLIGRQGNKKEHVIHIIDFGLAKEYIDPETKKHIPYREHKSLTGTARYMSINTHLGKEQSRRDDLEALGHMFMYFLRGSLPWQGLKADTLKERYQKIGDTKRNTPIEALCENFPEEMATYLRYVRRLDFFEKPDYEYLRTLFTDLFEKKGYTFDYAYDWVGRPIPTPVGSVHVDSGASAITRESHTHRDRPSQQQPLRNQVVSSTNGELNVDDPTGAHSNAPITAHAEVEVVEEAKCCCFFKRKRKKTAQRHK

[6] = target: Serine/threonine-protein kinase SIK1 (Homo sapiens) (UniProt P57059); assay: Selectivity interaction (Upstate Kinase Profiler service (Millipore)) EUB0000056c SIK1; conditions: at 1 µM
SRSF protein kinase 1 = SRSF protein kinase 1 (Homo sapiens, UniProt Q96SB4); assay: Selectivity interaction (Upstate Kinase Profiler service (Millipore)) EUB0000056c SRPK1; conditions: at 1 µM
[7] = target: Fibroblast growth factor receptor 1 (Homo sapiens, UniProt P11362); conditions: at 10 µM
[8] = target: Serine/threonine-protein kinase PAK 6 (Homo sapiens) (UniProt Q9NQU5); assay: Selectivity interaction (ProQinase) EUB0000171b PAK6; conditions: at 5 µM
Serine/threonine-protein kinase PAK 6 (Homo sapiens), sequence (Q9NQU5 whole entry, looked up): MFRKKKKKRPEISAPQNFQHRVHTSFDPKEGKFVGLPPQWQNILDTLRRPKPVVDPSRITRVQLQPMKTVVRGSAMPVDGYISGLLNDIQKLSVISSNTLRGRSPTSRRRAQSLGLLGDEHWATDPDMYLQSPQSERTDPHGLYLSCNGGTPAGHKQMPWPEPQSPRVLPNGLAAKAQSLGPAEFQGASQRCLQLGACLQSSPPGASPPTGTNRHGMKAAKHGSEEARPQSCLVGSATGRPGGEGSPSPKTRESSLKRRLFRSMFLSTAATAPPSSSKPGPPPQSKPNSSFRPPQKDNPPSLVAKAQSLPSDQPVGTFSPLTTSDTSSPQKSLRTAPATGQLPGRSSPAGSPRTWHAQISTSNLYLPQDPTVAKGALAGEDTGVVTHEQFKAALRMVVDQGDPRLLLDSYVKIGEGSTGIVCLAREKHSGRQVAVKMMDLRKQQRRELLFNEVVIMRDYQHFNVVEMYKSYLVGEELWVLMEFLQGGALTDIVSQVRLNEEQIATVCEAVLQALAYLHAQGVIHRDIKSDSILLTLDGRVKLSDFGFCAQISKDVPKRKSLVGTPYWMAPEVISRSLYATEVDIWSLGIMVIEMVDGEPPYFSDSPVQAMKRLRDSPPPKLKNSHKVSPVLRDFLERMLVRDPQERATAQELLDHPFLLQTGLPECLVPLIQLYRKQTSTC

[9] = target: Serine/threonine-protein kinase WNK4 (Homo sapiens) (UniProt Q96J92); assay: Selectivity interaction (KinomeScan (DiscoverX)) EUB0001049a WNK4; conditions: at 1 µM
[10] = target: T1, Mitogen-activated protein kinase kinase kinase 5 (Homo sapiens) (UniProt Q99683); assay: Selectivity interaction (KinomeScan (DiscoverX)) EUB0001049a MAP3K5; conditions: at 1 µM
T1 sequence (whole entry): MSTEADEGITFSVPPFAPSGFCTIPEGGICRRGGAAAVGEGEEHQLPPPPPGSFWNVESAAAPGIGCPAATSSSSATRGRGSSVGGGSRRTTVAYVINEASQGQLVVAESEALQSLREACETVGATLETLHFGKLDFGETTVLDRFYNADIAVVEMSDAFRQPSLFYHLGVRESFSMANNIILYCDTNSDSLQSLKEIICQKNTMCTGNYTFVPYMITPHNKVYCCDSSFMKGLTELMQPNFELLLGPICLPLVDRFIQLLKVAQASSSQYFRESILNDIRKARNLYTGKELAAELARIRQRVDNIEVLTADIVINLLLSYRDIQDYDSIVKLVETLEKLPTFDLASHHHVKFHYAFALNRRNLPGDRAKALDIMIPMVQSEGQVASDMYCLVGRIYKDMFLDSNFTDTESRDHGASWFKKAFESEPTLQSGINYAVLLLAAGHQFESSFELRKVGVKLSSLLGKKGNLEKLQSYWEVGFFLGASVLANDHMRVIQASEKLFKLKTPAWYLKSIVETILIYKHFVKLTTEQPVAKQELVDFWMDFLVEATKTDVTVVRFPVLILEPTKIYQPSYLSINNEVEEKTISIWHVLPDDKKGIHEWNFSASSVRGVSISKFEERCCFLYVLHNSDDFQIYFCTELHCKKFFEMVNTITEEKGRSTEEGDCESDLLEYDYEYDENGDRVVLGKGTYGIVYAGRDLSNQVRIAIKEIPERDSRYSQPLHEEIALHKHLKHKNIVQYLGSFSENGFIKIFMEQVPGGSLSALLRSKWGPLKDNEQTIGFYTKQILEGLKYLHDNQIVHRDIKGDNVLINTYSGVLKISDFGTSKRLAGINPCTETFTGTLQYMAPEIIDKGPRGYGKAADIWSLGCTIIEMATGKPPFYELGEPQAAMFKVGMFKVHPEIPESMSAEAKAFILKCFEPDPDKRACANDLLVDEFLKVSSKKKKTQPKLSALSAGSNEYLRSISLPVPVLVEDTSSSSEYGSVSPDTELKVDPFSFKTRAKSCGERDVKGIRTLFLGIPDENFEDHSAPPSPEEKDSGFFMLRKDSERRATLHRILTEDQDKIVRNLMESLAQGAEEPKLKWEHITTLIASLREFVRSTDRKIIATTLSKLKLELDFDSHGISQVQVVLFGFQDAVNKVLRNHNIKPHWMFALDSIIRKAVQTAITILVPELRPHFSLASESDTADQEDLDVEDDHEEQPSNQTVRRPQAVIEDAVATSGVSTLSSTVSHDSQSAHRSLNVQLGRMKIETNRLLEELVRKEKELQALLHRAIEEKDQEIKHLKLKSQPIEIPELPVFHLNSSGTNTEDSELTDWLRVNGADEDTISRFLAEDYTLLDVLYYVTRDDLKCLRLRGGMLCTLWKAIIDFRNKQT

[11] = target: T2, Serine/threonine-protein kinase ICK (Homo sapiens) (UniProt Q9UPZ9); assay: Selectivity interaction (KinomeScan (DiscoverX)) EUB0000695a ICK; conditions: at 100 nM
T2 sequence (whole entry): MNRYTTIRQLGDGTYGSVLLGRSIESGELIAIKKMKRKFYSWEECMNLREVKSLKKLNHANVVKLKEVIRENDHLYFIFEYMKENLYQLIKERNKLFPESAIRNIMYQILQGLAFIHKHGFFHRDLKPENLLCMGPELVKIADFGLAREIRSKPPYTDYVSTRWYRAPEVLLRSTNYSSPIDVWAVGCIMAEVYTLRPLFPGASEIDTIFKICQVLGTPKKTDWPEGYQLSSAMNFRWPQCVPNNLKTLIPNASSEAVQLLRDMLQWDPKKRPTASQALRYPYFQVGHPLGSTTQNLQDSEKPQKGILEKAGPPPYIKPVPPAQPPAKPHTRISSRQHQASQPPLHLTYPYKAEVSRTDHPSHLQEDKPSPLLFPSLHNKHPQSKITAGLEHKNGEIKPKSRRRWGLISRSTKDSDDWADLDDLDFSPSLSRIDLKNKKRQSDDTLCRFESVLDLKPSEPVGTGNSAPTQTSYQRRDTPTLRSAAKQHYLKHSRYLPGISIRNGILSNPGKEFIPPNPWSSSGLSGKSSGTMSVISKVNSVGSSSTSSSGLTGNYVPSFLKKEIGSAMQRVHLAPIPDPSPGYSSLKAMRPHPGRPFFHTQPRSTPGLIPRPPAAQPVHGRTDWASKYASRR

Delta-type opioid receptor, sequence (P41143 whole entry): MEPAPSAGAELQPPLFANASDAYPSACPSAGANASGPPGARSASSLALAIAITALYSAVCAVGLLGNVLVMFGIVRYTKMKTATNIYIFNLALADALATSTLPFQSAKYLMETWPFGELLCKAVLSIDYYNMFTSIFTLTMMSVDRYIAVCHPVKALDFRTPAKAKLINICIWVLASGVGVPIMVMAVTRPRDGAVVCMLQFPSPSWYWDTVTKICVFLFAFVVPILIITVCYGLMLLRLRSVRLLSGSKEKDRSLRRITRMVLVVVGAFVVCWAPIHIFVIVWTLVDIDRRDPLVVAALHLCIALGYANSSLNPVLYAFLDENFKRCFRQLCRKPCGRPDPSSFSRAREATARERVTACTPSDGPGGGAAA

## Cc1cc(C)cc([C@@H]2c3cc(C)ccc3NC(=O)CN2C(=O)c2ccc(Br)s2)c1
[1]
  % of inhibition: -20%

## CN(C)C/C=C/C(=O)Nc1ccc(C(=O)N2CCCC(Nc3ncc(Cl)c(-c4c[nH]c5ccccc45)n3)C2)cc1 (configuration not stated)
[2]
  % of control: 100%

## O[C@H]1CC[C@H](Nc2ncc3nc(Nc4c(F)cc(F)cc4F)n([C@H]4CCOC4)c3n2)CC1
[3]
  % of control: 95%

## CNC(=O)Nc1ccc(-c2nc(N3CC4CCC(C3)O4)c3cnn(C4CCC5(CC4)OCCO5)c3n2)cc1
[4]
  % of control: 87%

## N#Cc1cccc(-c2c[nH]c3ncnc(N4CCOCC4)c23)c1
[5]
  % of control: 100%

## Cc1ccc(-c2ccc3c(ccc4sc5c(c43)NC[C@@H](C)NC5=O)n2)cn1
[6]
  % of inhibition: 4%
SRSF protein kinase 1
  % of inhibition: 34%

## Cc1cc([C@@H](C)Nc2ccccc2C(=O)O)c2nc(N3CCOCC3)cc(=O)n2c1 [AZD-6482]
[7]
  % of control: 89%

## C=CC(=O)Nc1cccc(C(=O)Nc2ccc(Nc3cc(-c4[nH]c(SC)nc4C)ccn3)cc2)c1
[8]
  % of control: 67%

## COc1cc(Nc2nc(C)cc(-c3cnn4nc(OC)ccc34)n2)cc(C(F)(F)F)c1
[9]
  % of control: 100%
[10]
  % of control: 80%

## Cc1cc(F)c(C(=O)Nc2cccc(-c3nncn3C(C)C)n2)cc1-n1cnc(C2CC2)c1
[11]
  % of control: 100%
